Results taken from US20160193240A1, “Ulmoside-A: Useful For Prevention Or Cure Of Metabolic Diseases” (COUNCIL OF SCIENTIFIC & INDUSTRIAL RESEARCH, priority 2013, published 2016).
Marks after values point to notes of the source that are not given here.

How the values were obtained:
[1] = system: C2C12 myotubes; assay: Fatty acid oxidation (14CO2 release from 14C palmitate) in C2C12 myotubes; type: cell-based, mouse; conditions: 10 nM
Method: B. ULMA enhances fatty acid oxidation in C2C12 myotubes. C2C12 myotubes plated in 12 well plates were treated with vehicle (0.1% vol/vol DMSO) or 10 nM ULMA in DMSO (final concentration of DMSO in all wells 0.1% for 2 h, 24 h or 48 h. Data represent mean±SEM of three independent experiments performed in triplicates. Following treatment, ^14CO2 release from these cells was measured and plotted. *p<0.05, **p<0.01, ***p<0.001 as determined by two tailed unpaired student's t-test.
D. siAdipoR1 eliminates ULMA induction of fatty acid oxidation. C2C12 myotubes were transfected with nonsilencing siC or siAdipoR1. 72 h after transfection, cells were treated for 24 h with 10 nM ULMA and fatty acid oxidation experiments were performed. Data is mean±SEM of three independent experiments performed in triplicates. **p<0.01 as determined by two tailed unpaired student's t-test.
Adiponectin is known to enhance glucose uptake and fatty acid oxidation in skeletal muscle and myotubes (T. Kadowaki, T. Yamauchi, N. Kubota, K. Hara, K. Ueki, K. Tobe. J Clin Invest. 116(7): 1784-1792. 2006; T. Yamauchi, J. Kamon, Y. Ito, A. Tsuchida, T. Yokomizok, S. Kita, T. Sugiyama, M. Miyagishi, K. Hara, M. Tsunodaq, K. Murakamiq, T. Ohteki, S. Uchida, S. Takekawa, H. Waki, N. H. Tsuno, Y. Shibata, Y. Terauchi, P. Froguel, K. Tobe, S. Koyasu, K. Taira, T. Kitamura, T. Shimizuk, R. Nagai, T. Kadowaki. Nature. 423(6941):762-769. 2003). […] Subsequently, the cells were lysed in 100 μl 0.5N NaOH and 5 μl lysate was used for protein concentration determination, and rest of the lysate was used to measure cellular radioactivity in a beta-counter (Beckman Coulter). […] Radioactivity that had become adsorbed onto the filter discs was then quantified by liquid scintillation counting in a beta-counter (Beckman Coulter). The cells were lysed with 200 μl 0.5N NaOH and 5 μl of the lysate was used for protein estimation using Bradford assay and the radioactivity was normalized with the protein content.

[2] = system: Human SVF; assay: Brown adipose marker protein level in human stromal vascular fractions; type: cell-based; conditions: differentiated in presence of ULMA, 21 d
Method: C. Cells from identical set of experiments as described in FIGS. 5A and 5B or human SVFs prepared by collagenase digestions were analyzed by western blot analysis for determination of UCP-1, UCP-2 and PGC-1α protein level. Beta-actin was used as a loading control. Data is representative of three independent experiments.
Mouse stromal vascular fractions (SVF) from epididymal fat pad were prepared using standard collagenase digestion method. Human SVF was prepared from human lipoaspirates (subcutaneous) collected from an obese individual undergoing liposuction following approval of Institutional Ethical Committee. To isolate SVFs, epidymal fat pads tissue or lipoaspirates were washed 6× in PBS and then were dispensed in tissue culture flasks. 0.2% sterile collagenase (Sigma) solution containing 1× antibiotic-antimycotic (Invitrogen) was then added to the adipose and the flasks were shaken vigorously for 10 seconds. The flasks were then incubated at 37° C. on a shaker for 2 hours with manual shaking of the flasks for 5-10 seconds every 15 min. After completion of digestion, FBS was added to the final concentration of 10% to the flasks, mixed and the collagenase digested tissue were then dispensed in 50 ml conical tubes and were centrifuged at 400 g for 10 min at room temp. […]

[3] = system: wistar rats; assay: Dexamethasone mediated cardiac hypertrophy in rats (heart weight/body weight ratio); type: in vivo, rat
Method: Following 15 d treatment with indicated compounds or vehicle, animals were euthanized and heart weight and body weight were measured and heart weight/body weight ratio were calculated and plotted. Data represents mean+/−SEM. N=6. *p<0.05 as determined by student's t-test.
Blood was collected from cardiac punctures.
Therefore, the heart weight/body weight ratio was measured in these rats (described in Example 6A-C).

[4] = system: wistar rats; assay: Dexamethasone-mediated imbalance in serum Na, K level in rats; type: in vivo, rat; conditions: Dex + ULMA, 14 days
Method: Food intake was measured daily and the rats were weighed each week. The rats were fasted overnight (O/N) on day 14th and on day 15th oral glucose tolerance test was performed. Following oral glucose tolerance test (OGTT), rats were kept with food and water ad libitum for one day. On day 16th, rats were fasted again O/N and then euthanized. At autopsy, from 5 animals/group, tissues were collected and snap frozen in liquid nitrogen. Blood was collected from cardiac punctures. Plasma was separated from whole blood by centrifugation at 3000 rpm for 20 min immediately after collection of blood and stored at −80° C. until further analysis. Forelimb (quadriceps) skeletal muscles were processed for RNA and protein extraction, followed by quantitative real-time PCR (QRT-PCR) analysis. Two animals from each group were used for photography post autopsy.

SMILES: O=C1c2c(cc(O)c([C@@H]3O[C@H](CO)[C@@H](O)[C@H](O)[C@H]3O)c2O)O[C@@H](c2ccc(O)c(O)c2)[C@@H]1O [ULMA, (2S,3S)-(+)-3′,4′,5,7-tetrahydroxydihydroflavonol-6-C-β-D-glucopyranoside]
- time of treatment at which induction of fatty acid oxidation was visible [1]: ≤ 2 h
- fatty acid oxidation ([1]; 2 h, 24 h or 48 h, increased with time): robustly induced
- ULMA-induced fatty acid oxidation with siAdipoR1 (not siC) ([1]; 24 h, 72 h after siRNA transfection): completely eliminated
- PGC-1α protein level [2]: elevated
- UCPs protein level [2]: elevated
- Dex-caused increase of heart/body weight ratio ([3]; Dex + ULMA): significantly alleviated this increase
- heart weight/body weight ratio in control animals ([3]; ULMA alone): did not change
- Na (mmol/l) [4]: 124 ± 3.7^a mmol/l
- serum K [4]: 3.93 ± 0.08 mM
